Data from patent US20210393558A1, “METHODS AND COMPOSITIONS FOR PREVENTION AND TREATMENT OF PRESSURE ULCERS” (TECHNION RESEARCH AND DEVELOPMENT FOUNDATION LTD., priority 2017, published 2021).

What was measured:
[1] = cited from earlier work
NIH3T3 fibroblasts [2] = experiment: Gap closure of damaged monolayers with low/medium-level stretching; type: cell-based, Mouse; conditions: 0% stretching, post-injury NaPy 0, 1 or 5 mM
Description: (§1) Mouse myoblast or fibroblast cells (1×10^6 per well, previously grown media containing 1 mM NaPy) were seeded 1-3 days prior to performing a stretching experiment in a six-well (31-mm diameter) culture plate with an elastic, 0.51-mm thick, transparent and collagen-coated substrata bottom (Flexcell Inc., Burlington, N.C.). Cells were grown on the stretchable-bottom plate until a confluent monolayer had formed. The plates with cells were then mounted onto our stretching apparatus and radial stretching to tensile strains of 3% or 6% or 0% (no-stretch) control was applied Immediately following stretching, compressive deformation damage was induced in each monolayer using a rigid optic fiber (˜350 μm diameter). Cells at the center of each well were crushed, inducing an approximately circular cell-damage area with varying sizes (0.05-0.5 mm^2). Media was replaced to remove any cell debris and the fresh media contained varying concentrations of sodium pyruvate: 0, 1 or 5 mM. Then the time-dependent gap closure was evaluated to reveal kinematic features The stretching apparatus was mounted in the motorized microscope stage to facilitate for time-lapse imaging of progression of the gap closure. Cell viability throughout the prolonged experiments was ensured by maintaining 37° C., 5% CO2 and high humidity, using an incubator that enclosed the microscope (Life Imaging Services, Basel, Switzerland).
(§2) Time-lapse imaging was performed using a fully motorized, inverted fluorescence microscope (Olympus IX81, Tokyo, Japan) with a custom MATLAB 2012b (The MathWorks, Natick, Mass.) graphical user interface (GUI) module to automatically control lens positioning and collect images of the gap every 10 minutes for up to 24 hours. Images were taken using an XR Mega-10AWCL camera (Stanford Photonics Inc., Palo Alto, Calif.), using a 10×/NA 0.3 long working-distance, air immersion objective lens at a final magnification of 646.8 nm/pixel. A custom algorithm in MATLAB 2012b was used to automatically analyze the time-progression images of the gap area closure and quantify cell migration and gap closure progression, as described in Topman et al. (Micron 51:9-12; 2012); Toume et al. Int Wound J 14:698-703; 2017). Briefly, the time-dependent area was fit to a Richard's function, which is an asymmetric sigmoid, by minimizing the mean squared error. Using the fitted curve, the maximum migration rate was calculated, which is the maximal slope of the area vs. time, Richards fit. The normalized maximum migration rate was obtained by dividing the maximum migration rate by the initial gap area. In addition, the time for 90% gap area closure, which is indicative of the end of the en masse cell migration regime was obtained (Topman et al. 2012; Med Eng Phys 34:225-232).
(§3) Results of the different conditions were compared using a two-way analysis of variance (ANOVA) for unequal length samples; Statistical analysis was performed in MATLAB. The interaction parameter was found significant, thus the interactions between the sodium pyruvate concentration and the stretching level and were important; in cases where only the interaction parameter the interaction is considered ‘simple’ by typical definitions in statistical analysis. A one-way ANOVA was also performed in conjunction with post-hoc Tukey-Kramer tests to identify statistically significant differences levels of sodium pyruvate for each level of stretching and vice versa. A P-value lower than 0.05 was considered significant.
(§4) Both tested cell types, C2C12 myoblasts and NIH3T3 fibroblasts were cultured in media with 1 mM sodium pyruvate up to the time of infliction of compressive deformation damage (micro-gap formation) and concurrent application of radial stretching. […]

C2C12 myoblasts [3] = experiment: as above; type: cell-based, Mouse
Description: as §1, §2, §3, §4

NIH3T3 fibroblasts [4] = experiment: Membrane permeability (FITC-labeled 4 kDa dextran uptake, FACS) under damage-level 12% strain; type: cell-based, murine; conditions: increasing concentrations of NaPy pre-treatment (0, 1, 5 mM, 4 hours), 12% strain 3 hrs
Description: (§5) For each experiment, 300,000 cells were cultured 24 hours in parallel on 2-4 bioflexcell collagen-coated 6-well plates (Flexcell Inc., North Carolina). On the day of the experiment the cell growth media (with 0/1 mM NaPy) was replaced with media supplemented with different NaPy concentrations (0, 1 or 5 mM) and cells were incubated for 4 hours; this constitutes the pre-treatment of the cells. A four-hour pre-treatment was chosen as that is a clinically relevant time-scale during preparation e.g. before planned surgical procedures.
(§6) Each 6-well plate contained two wells with each of the three NaPy pre-treatment concentrations. After 4 hours, all but one of the bioflexcell plates were simultaneously subjected to damaging-level, sustained strain-loads of 12% radial stretching for 3 hours and one plate in each experiment was not stretched for control. […] Next, cells were centrifuged (900 rpm for 5 min) and resuspended in 0.5 ml of PBS within 12×75 mm polystyrene test tubes for use with fluorescence activated cell sorting (FACS).
(§7) Permeability of the plasma membrane was quantified by cell uptake of the small (4 kDa) FITC-labeled Dextran. Fluorescence intensity changes due to internalized FITC-labeled Dextran and auto fluorescence of over 20,000 cells per sample was measured using a fluorescence-activated cell sorting (FACS) Calibur system (BD Biosciences, New Jersey) with the fluorescence channel. […] For each pre-treatment (and growth media) condition 4 measurements were collected: strain-loaded cells with or without added dextran, and unstrained control cells with or without dextran; samples without dextran provide a control for native cell auto-fluorescence (AF). The percent change in dextran uptake is calculated by the mean value of the strained sample relative to the unstrained samples, after subtracting the auto-fluorescence for each. […]

C2C12 myoblasts [5] = experiment: as above; type: cell-based, murine
Description: as §5, §6, §7

[6] = group given NaPy eye drops, 2 hours prior to extraction; control 0.145+/−0.06 mM; cited from earlier work
[7] = 3%-cream applied on the skin, after 24 hours; cited from earlier work
[8] = adopted from the literature, model input
[9] = 1 mM NaPy with 3% stretching vs no NaPy
[10] = 5 mM NaPy with 3% stretching vs no NaPy

| SMILES | Solubility in the aqueous phase of the dressing and tissues [1, 8] | diffusivity in the aqueous phase of the dressing and tissues [1, 8] | free diffusivity in the aqueous phase of the dressing and tissues [1, 8] | log Ko/W ([1]; input of the Kp equation) | gap closure rate (NIH3T3 fibroblasts [2]) | gap closure rate (C2C12 myoblasts [3]; 0% stretching, post-injury NaPy 0, 1 or 5 mM) | normalized gap-closure rate (C2C12 myoblasts [3]; 1 mM NaPy post-injury with 3% stretching (16.3 without NaPy)) | time to reach 90% gap coverage (C2C12 myoblasts [3]; 1 mM NaPy with 3% stretching (9.2 hrs without NaPy)) | decrease of time to reach 90% gap coverage (C2C12 myoblasts [3]; [9]) | increase of normalized gap-closure rate (C2C12 myoblasts [3]; [9]) | normalized gap-closure rate (C2C12 myoblasts [3]; 5 mM NaPy post-injury with 3% stretching (16.3 without NaPy)) | time to reach 90% gap coverage (C2C12 myoblasts [3]; 5 mM NaPy with 3% stretching (9.2 hrs without NaPy)) | decrease of time to reach 90% gap coverage (C2C12 myoblasts [3]; [10]) | increase of normalized gap-closure rate (C2C12 myoblasts [3]; [10]) | gap closure (C2C12 myoblasts [3]; 3% strain combined with post-injury exogenous NaPy supplement (1 or 5 mM)) | damage to membrane integrity (uptake relative to control) (NIH3T3 fibroblasts [4]) | cell damage-induced uptake of dextran relative to control (C2C12 myoblasts [5]; NaPy pre-treatment 0, 1, 5 mM for 4 hours, then 12% sustained stretch 3 hrs) | strain-damage induced membrane poration (C2C12 myoblasts [5]; cultured in media containing 1 mM NaPy, pre-treated with 5 mM NaPy, 12% strain 3 hrs) | level of NaPy in corneal tissue [6] | transdermal flux [7] |
| --- | --- | --- | --- | --- | --- | --- | --- | --- | --- | --- | --- | --- | --- | --- | --- | --- | --- | --- | --- | --- |
| CC(=O)C(=O)[O-].[Na+] [NaPy, sodium pyruvate] | 100 mg/mL | 0.0005 mm^2/s | 0.001 mm^2/s | −5.05 | unaffected | unaffected | 20.5 % area/hr | 7.3 h | 21% | 26% | 23.7 % area/hr | 6.3 h | 31% | 46% | successfully accelerated gap closure in a concentration dependent and statistically significant manner | reduced damage to membrane integrity | a reduction was observed in the cell damage-induced uptake of dextran relative to control that is proportional to the NaPy concentration | a reduction was observed in the strain-damage induced membrane poration to insignificant levels | 350 to 525 µM | – |
| O=C(O)Cc1ccccc1Nc1c(Cl)cccc1Cl [Diclofenac Sodium] | – | – | – | – | – | – | – | – | – | – | – | – | – | – | – | – | – | – | – | 0.321-0.943 nmol/cm^2·h |
